The assay has as its target T1, Tyrosinase (Homo sapiens) (UniProt P14679).
T1 sequence (whole entry): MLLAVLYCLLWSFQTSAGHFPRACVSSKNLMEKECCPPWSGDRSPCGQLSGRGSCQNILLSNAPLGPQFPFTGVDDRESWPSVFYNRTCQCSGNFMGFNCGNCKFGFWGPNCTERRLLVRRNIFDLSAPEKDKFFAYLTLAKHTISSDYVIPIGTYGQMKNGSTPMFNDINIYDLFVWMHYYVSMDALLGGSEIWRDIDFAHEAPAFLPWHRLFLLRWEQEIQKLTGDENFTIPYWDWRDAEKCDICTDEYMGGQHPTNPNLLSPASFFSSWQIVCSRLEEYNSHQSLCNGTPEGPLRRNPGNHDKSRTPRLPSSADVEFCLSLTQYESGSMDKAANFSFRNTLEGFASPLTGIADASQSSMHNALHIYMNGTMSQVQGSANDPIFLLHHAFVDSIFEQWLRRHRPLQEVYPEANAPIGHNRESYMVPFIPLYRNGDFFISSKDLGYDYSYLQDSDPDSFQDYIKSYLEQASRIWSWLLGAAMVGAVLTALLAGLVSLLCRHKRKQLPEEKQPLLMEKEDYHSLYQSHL
Description: Inhibition of tyrosinase-mediated formation of melanin from tyrosine at 100 uM relative to control.

Each structure is given as a SMILES string.

For the compound `CC[C@H](C)[C@@H]1NC(=O)[C@H](Cc2ccc(O)cc2)N(C)C(=O)[C@H]([C@H](C)O)N2C(=O)[C@H](CC[C@H]2O)NC(=O)[C@H](CC(C)C)NC(=O)[C@@H](NC(=O)[C@H](CCC(N)=O)NC(=O)[C@H](CCc2ccc(O)cc2)NC(=O)[C@H](O)CO)[C@@H](C)OC1=O`, the inhibition – broadly, the share of the control response that was lost under treatment – stood at 55%.

For the origin of these results see ChEMBL document CHEMBL1151674, “Oscillapeptin G, a tyrosinase inhibitor from toxic Oscillatoria agardhii” (J Nat Prod, 1996).
